Values after ≈ are worked out from the molar mass of the structure shown.
Key:
Lytechinus variegatus [1] = assay: Antimitotic activity in Lytechinus variegatus embryo assessed as inhibition of third cleavage at 32 uM relative to control; format: functional
K562 = assay: Cytotoxicity against human K562 cells after 72 hrs by MTT assay; format: functional, cell-based; details: K562, 72 h
Lytechinus variegatus [2] = assay: Antimitotic activity in Lytechinus variegatus embryo assessed as inhibition of first cleavage at 320 uM relative to control; format: functional
HCT-8 = assay: Cytotoxicity against human HCT8 cells after 72 hrs by MTT assay; format: functional, cell-based; details: HCT-8, 72 h
MDA-MB-435 = assay: cells; details: Homo sapiens, MDA-MB-435, 72 h
Description: Cytotoxicity against human MDA-MB-435 cells after 72 hrs by MTT assay

[3] = Antimitotic activity in Lytechinus variegatus embryo assessed as inhibition of blastula formation at 320 uM relative to control; format: functional
B16 = assay: Cytotoxicity against mouse B16 cells after 72 hrs by MTT assay; format: functional, cell-based; details: B16, 72 h
Lytechinus variegatus [4] = assay: Antimitotic activity in Lytechinus variegatus embryo assessed as inhibition of first cleavage at 32 uM relative to control; format: functional
CCRF-CEM = assay: Cytotoxicity against human CEM cells after 72 hrs by MTT assay; format: cell-based
HL-60 = assay: Cytotoxicity against human HL60 cells after 72 hrs by MTT assay; format: functional, cell-based; details: HL-60, 72 h
PC-3 = assay: cells; details: Homo sapiens, PC-3, 72 h
Description: Cytotoxicity against human PC3 cells after 72 hrs by MTT assay

Lytechinus variegatus [5] = assay: Antimitotic activity in Lytechinus variegatus embryo assessed as inhibition of third cleavage at 320 uM relative to control; format: functional
[6] = Toxicity in mouse erythrocytes assessed as hemolysis at 1.5 to 200 ug/mL after 30 min by spectrophotometry; format: cell-based; details: erythrocyte, 0.5 h
[7] = Antimitotic activity in Lytechinus variegatus embryo assessed as inhibition of blastula formation at 32 uM relative to control; format: functional
[8] = Antimitotic activity in Lytechinus variegatus embryo assessed as inhibition of blastula formation at 39.4 uM relative to control; format: functional
Lytechinus variegatus [9] = assay: Antimitotic activity in Lytechinus variegatus embryo assessed as inhibition of first cleavage at 394 uM relative to control; format: functional
[10] = Antimitotic activity in Lytechinus variegatus embryo assessed as inhibition of blastula formation at 394 uM relative to control; format: functional
Lytechinus variegatus [11] = assay: Antimitotic activity in Lytechinus variegatus embryo assessed as inhibition of third cleavage at 39.4 uM relative to control; format: functional
Lytechinus variegatus [12] = assay: Antimitotic activity in Lytechinus variegatus embryo assessed as inhibition of first cleavage at 39.4 uM relative to control; format: functional
Lytechinus variegatus [13] = assay: Antimitotic activity in Lytechinus variegatus embryo assessed as inhibition of third cleavage at 394 uM relative to control; format: functional
[14] = Antimitotic activity in Lytechinus variegatus embryo assessed as inhibition of blastula formation at 417 uM relative to control; format: functional
[15] = Antimitotic activity in Lytechinus variegatus embryo assessed as inhibition of blastula formation at 41.7 uM relative to control; format: functional
Lytechinus variegatus [16] = assay: Antimitotic activity in Lytechinus variegatus embryo assessed as inhibition of third cleavage at 41.7 uM relative to control; format: functional
Lytechinus variegatus [17] = assay: Antimitotic activity in Lytechinus variegatus embryo assessed as inhibition of third cleavage at 417 uM relative to control; format: functional
Lytechinus variegatus [18] = assay: Antimitotic activity in Lytechinus variegatus embryo assessed as inhibition of first cleavage at 41.7 uM relative to control; format: functional
Lytechinus variegatus [19] = assay: Antimitotic activity in Lytechinus variegatus embryo assessed as inhibition of first cleavage at 417 uM relative to control; format: functional
Lytechinus variegatus [20] = assay: Antimitotic activity in Lytechinus variegatus embryo assessed as inhibition of third cleavage at 35.2 uM relative to control; format: functional
[21] = Antimitotic activity in Lytechinus variegatus embryo assessed as inhibition of blastula formation at 352 uM relative to control; format: functional
Lytechinus variegatus [22] = assay: Antimitotic activity in Lytechinus variegatus embryo assessed as inhibition of first cleavage at 352 uM relative to control; format: functional
[23] = Antimitotic activity in Lytechinus variegatus embryo assessed as inhibition of blastula formation at 35.2 uM relative to control; format: functional
Lytechinus variegatus [24] = assay: Antimitotic activity in Lytechinus variegatus embryo assessed as inhibition of first cleavage at 35.2 uM relative to control; format: functional
Lytechinus variegatus [25] = assay: Antimitotic activity in Lytechinus variegatus embryo assessed as inhibition of third cleavage at 352 uM relative to control; format: functional
Lytechinus variegatus [26] = assay: Antimitotic activity in Lytechinus variegatus embryo assessed as inhibition of third cleavage at 18.4 uM relative to control; format: functional
[27] = Antimitotic activity in Lytechinus variegatus embryo assessed as inhibition of blastula formation at 184 uM relative to control; format: functional
[28] = Antimitotic activity in Lytechinus variegatus embryo assessed as inhibition of blastula formation at 18.4 uM relative to control; format: functional
Lytechinus variegatus [29] = assay: Antimitotic activity in Lytechinus variegatus embryo assessed as inhibition of third cleavage at 184 uM relative to control; format: functional
Lytechinus variegatus [30] = assay: Antimitotic activity in Lytechinus variegatus embryo assessed as inhibition of first cleavage at 184 uM relative to control; format: functional
Lytechinus variegatus [31] = assay: Antimitotic activity in Lytechinus variegatus embryo assessed as inhibition of first cleavage at 18.4 uM relative to control; format: functional
Lytechinus variegatus [32] = assay: Antimitotic activity in Lytechinus variegatus embryo assessed as inhibition of first cleavage at 37 uM relative to control; format: functional
[33] = Antimitotic activity in Lytechinus variegatus embryo assessed as inhibition of blastula formation at 37 uM relative to control; format: functional
Lytechinus variegatus [34] = assay: Antimitotic activity in Lytechinus variegatus embryo assessed as inhibition of first cleavage at 370 uM relative to control; format: functional
Lytechinus variegatus [35] = assay: Antimitotic activity in Lytechinus variegatus embryo assessed as inhibition of third cleavage at 37 uM relative to control; format: functional
[36] = Antimitotic activity in Lytechinus variegatus embryo assessed as inhibition of blastula formation at 370 uM relative to control; format: functional
Lytechinus variegatus [37] = assay: Antimitotic activity in Lytechinus variegatus embryo assessed as inhibition of third cleavage at 370 uM relative to control; format: functional
Lytechinus variegatus [38] = assay: Antimitotic activity in Lytechinus variegatus embryo assessed as inhibition of third cleavage at 43.8 uM relative to control; format: functional
Lytechinus variegatus [39] = assay: Antimitotic activity in Lytechinus variegatus embryo assessed as inhibition of first cleavage at 43.8 uM relative to control; format: functional
[40] = Antimitotic activity in Lytechinus variegatus embryo assessed as inhibition of blastula formation at 43.8 uM relative to control; format: functional

Structure (SMILES)	IC50 (K562) [µg/mL]	IC50 (HCT-8) [µg/mL]	IC50 (MDA-MB-435) [µg/mL]	IC50 (B16) [µg/mL]	IC50 (CCRF-CEM) [µg/mL]	IC50 (HL-60) [µg/mL]	IC50 (PC-3) [µg/mL]	Activity [6]	inhibition at 417 µM [14] [%]	inhibition at 41.7 µM [15] [%]	inhibition (Lytechinus variegatus [16]) [%]	inhibition (Lytechinus variegatus [17]) [%]	inhibition (Lytechinus variegatus [18]) [%]	inhibition (Lytechinus variegatus [19]) [%]	also measured
COc1cc(/C=C(/C(=O)O)c2ccccc2)ccc1OC(C)=O	> 25	> 25	> 25	> 25	> 25	> 25	> 25	Non-toxic	–	–	–	–	–	–	inhibition (Lytechinus variegatus [1]): 2.3%; inhibition (Lytechinus variegatus [2]): 100%; inhibition at 320 µM [3]: 100%; inhibition (Lytechinus variegatus [4]): 0%; inhibition (Lytechinus variegatus [5]): 100%; inhibition at 32 µM [7]: 5%
COc1ccc(/C=C(/C(=O)O)c2ccccc2)cc1	> 25	> 25	> 25	> 25	> 25	> 25	> 25	Non-toxic	–	–	–	–	–	–	inhibition at 39.4 µM [8]: 0.3%; inhibition (Lytechinus variegatus [9]): 0%; inhibition at 394 µM [10]: 68.7%; inhibition (Lytechinus variegatus [11]): 3.6%; inhibition (Lytechinus variegatus [12]): 0%; inhibition (Lytechinus variegatus [13]): 9.3%
O=C(O)/C(=C/c1ccccc1O)c1ccccc1	> 25	> 25	> 25	> 25	> 25	> 25	> 25	Non-toxic	95.4	97.3	96.3	100	12.3	44.5	–
COc1ccc(/C=C\c2ccccc2)cc1OC	6.38 (≈ 26.5 µM)	> 25	6.08 (≈ 25.3 µM)	> 25	> 25	6.42 (≈ 26.7 µM)	> 25	Non-toxic	100	100	100	100	0	100	–
COc1ccc(/C=C(/C(=O)O)c2ccccc2)cc1OC	> 25	> 25	> 25	> 25	> 25	> 25	> 25	Non-toxic	–	–	–	–	–	–	inhibition (Lytechinus variegatus [20]): 0%; inhibition at 352 µM [21]: 0.7%; inhibition (Lytechinus variegatus [22]): 3%; inhibition at 35.2 µM [23]: 0.7%; inhibition (Lytechinus variegatus [24]): 4.3%; inhibition (Lytechinus variegatus [25]): 0%
COc1ccc(/C=C/c2ccccc2)cc1OC	> 25	> 25	> 25	> 25	> 25	> 25	> 25	Non-toxic	100	83	6	100	0	0	–
COc1cccc2c1C(=O)c1c(O)c3c(c(O)c1C2=O)C[C@@](O)(C(=O)CO)C[C@@H]3O[C@H]1C[C@H](N)[C@H](O)[C@H](C)O1 [DOXORUBICIN]	0.14 (≈ 0.258 µM)	–	–	–	0.02 (≈ 0.0368 µM)	–	0.45 (≈ 0.828 µM)	–	–	–	–	–	–	–	inhibition (Lytechinus variegatus [26]): 100%; inhibition at 184 µM [27]: 100%; inhibition at 18.4 µM [28]: 100%; inhibition (Lytechinus variegatus [29]): 100%; inhibition (Lytechinus variegatus [30]): 100%; inhibition (Lytechinus variegatus [31]): 100%
COc1cc(/C=C(/C(=O)O)c2ccccc2)ccc1O	> 25	> 25	17.8 (≈ 65.7 µM)	> 25	> 25	> 25	> 25	Non-toxic	–	–	–	–	–	–	inhibition (Lytechinus variegatus [32]): 0%; inhibition at 37 µM [33]: 5.3%; inhibition (Lytechinus variegatus [34]): 0%; inhibition (Lytechinus variegatus [35]): 7.6%; inhibition at 370 µM [36]: 99.7%; inhibition (Lytechinus variegatus [37]): 7.3%
Oc1ccc(/C=C/c2cc(O)cc(O)c2)cc1 [RESVERATROL]	9.62 (≈ 42.1 µM)	5.82 (≈ 25.5 µM)	13.8 (≈ 60.5 µM)	14.3 (≈ 62.9 µM)	5.91 (≈ 25.9 µM)	2.45 (≈ 10.7 µM)	3.51 (≈ 15.4 µM)	Non-toxic	–	–	–	–	–	–	inhibition (Lytechinus variegatus [38]): 100%; inhibition (Lytechinus variegatus [39]): 97.9%; inhibition at 43.8 µM [40]: 100%
